In patent publication US20130288989A1, “NEW USE OF CHEMICAL INGREDIENTS IN CYNOMORIUM AS PHYTOESTROGEN” (TIANJIN UNIVERSITY OF TRADITIONAL CHINESE MEDICINE, priority 2010, published 2013):

Experiments:
Type in all cases: cell-based
[1] = biological target: T1, ERα (Homo sapiens, UniProt P03372); assay: ERα luciferase reporter gene transcription activation in transfected Hela cells; conditions: for ERα (% of the control) mean ± S.D. / ERα (% of estradiol): Hela cells; for ERα (% of the control) mean ± S.D.: 24 h; for ERα (% of estradiol): estradiol at 10^−8M
T1 construct: expressed in transfected cells; host or cells: Hela cells (ER expression free)
T1 sequence (P03372 1-595): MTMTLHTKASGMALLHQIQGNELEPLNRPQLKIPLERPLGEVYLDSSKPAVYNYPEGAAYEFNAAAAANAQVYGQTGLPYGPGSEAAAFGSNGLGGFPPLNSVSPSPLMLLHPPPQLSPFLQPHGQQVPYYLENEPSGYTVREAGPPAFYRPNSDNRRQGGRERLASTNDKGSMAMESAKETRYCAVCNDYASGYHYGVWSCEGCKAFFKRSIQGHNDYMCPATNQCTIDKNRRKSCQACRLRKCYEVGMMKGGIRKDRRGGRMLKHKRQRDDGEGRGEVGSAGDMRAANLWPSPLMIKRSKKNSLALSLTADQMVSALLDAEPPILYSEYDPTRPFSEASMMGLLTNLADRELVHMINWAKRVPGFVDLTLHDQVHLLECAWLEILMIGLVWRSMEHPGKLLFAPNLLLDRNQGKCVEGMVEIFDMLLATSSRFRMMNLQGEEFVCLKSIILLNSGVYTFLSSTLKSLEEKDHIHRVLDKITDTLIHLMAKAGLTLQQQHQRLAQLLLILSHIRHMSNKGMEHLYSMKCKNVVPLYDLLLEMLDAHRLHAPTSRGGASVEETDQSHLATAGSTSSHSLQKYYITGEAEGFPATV
Excerpt: (§1) Actually, estrogens show their biological activity by regulating estrogen responding genetic transcription.
(§2) Formulation of sample solutions of catechin, (−)epicatechin-3-O-gallate, naringenin-4′-O-glucoside, phlorizin, emodin, chrysophanol (separately obtained from Example 1):
(§3) Catechin, (−)epicatechin-3-O-gallate, naringenin-4′-O-glucoside, phlorizin, emodin, chrysophanol in corresponding weights were separately weighed precisely, than added with DMSO for dissolution, the corresponding sample solution high dose groups (10 μM or 1 μM), were diluted in certain times to separately obtain low dose groups (1 μM to 0.001 μM).
(§4) Under condition of 37° C. and 5% CO2, Hela cells were cultured in phenol red-free high sugar DMEM culture medium containing 10% calf serum in incubator, the cells were spread in 60% density on 96-well plate when cell density was about 90%, each well was added with 150 ul of phenol red-free DMEM culture medium containing 10% serum, cultivation was performed overnight. To each well of the 96-well plate, 100 ul of serum-free DMEM culture medium and 0.4 μg plasmid (ptk-ERE-luc 2 μg, tk-Renila 1 μg, ERα or ERβ 1 μg) were used for transfection. After 6 h of transfection, each well was added with 150 ul of serum-free phenol red-free DMEM culture medium. Three wells were selected form each group, added with 10^−8M estradiol E2, and substance to be tested in different concentrations, 15 ul/well (sample 4-5 concentration gradient groups), continuously cultured under condition of 37° C., 5% CO2 for 24 h. After 24 h, each well was added with 80 μl of cell disruption solution, and the cells were subjected to freeze thawing once to be sufficiently disrupted. As for the cell lysis solution of each well, its activities to firefly luciferase and Renila luciferase were separately measured.

[2] = biological target: T2, ERβ (Homo sapiens, UniProt Q92731); assay: ERβ luciferase reporter gene transcription activation in transfected Hela cells; conditions: for ERβ (% of the control) mean ± S.D. / ERβ (% of estradiol): Hela cells; for ERβ (% of the control) mean ± S.D.: 24 h; for ERβ (% of estradiol): estradiol at 10^−8M
T2 construct: expressed in transfected cells; host or cells: Hela cells (ER expression free)
T2 sequence (Q92731 whole entry): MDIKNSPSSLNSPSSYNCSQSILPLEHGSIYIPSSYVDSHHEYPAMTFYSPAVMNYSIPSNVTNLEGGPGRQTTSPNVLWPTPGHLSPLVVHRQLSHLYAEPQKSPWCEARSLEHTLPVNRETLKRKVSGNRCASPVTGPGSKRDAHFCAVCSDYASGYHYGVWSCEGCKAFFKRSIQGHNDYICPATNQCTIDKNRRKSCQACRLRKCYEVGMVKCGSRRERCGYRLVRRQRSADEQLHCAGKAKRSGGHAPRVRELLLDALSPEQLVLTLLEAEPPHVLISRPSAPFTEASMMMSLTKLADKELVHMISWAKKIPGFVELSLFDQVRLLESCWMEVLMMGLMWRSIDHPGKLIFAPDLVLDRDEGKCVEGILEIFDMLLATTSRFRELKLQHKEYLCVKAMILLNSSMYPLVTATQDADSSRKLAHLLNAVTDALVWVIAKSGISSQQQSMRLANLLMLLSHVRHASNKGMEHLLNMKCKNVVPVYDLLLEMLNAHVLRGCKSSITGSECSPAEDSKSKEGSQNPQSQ
Excerpt: as §1, §2, §3, §4

[3] = test system: estrogen receptor; assay: Estrogen receptor activation test: overall estrogen activity and ERβ versus ERα comparison; conditions: for ERβ/ERα (both % of estradiol at 10^−8M): Hela cells; for estrogen activity / estrogen receptor activation (in words): estradiol as positive control
Procedure: as §1, §4

O=C(O[C@@H]1Cc2c(O)cc(O)cc2O[C@@H]1c1ccc(O)c(O)c1)c1cc(O)c(O)c(O)c1 [(−)Epicatechin-3-O-gallate, (−)epicatechin-3-O-gallate]
ERα (% of the control) mean ± S.D. ([1]; 10^−5 M): 171.88 ± 22.57 % of the control | ERα (% of estradiol) ([1]; 10^−5 M): (80.79) % of estradiol | ERα (% of the control) mean ± S.D. ([1]; 10^−6 M): 192.40 ± 27.72 % of the control | ERα (% of estradiol) ([1]; 10^−6 M): (90.43) % of estradiol | ERα (% of the control) mean ± S.D. ([1]; 10^−7 M): 200.50 ± 13.72 % of the control | ERα (% of estradiol) ([1]; 10^−7 M): (94.24) % of estradiol | ERα (% of the control) mean ± S.D. ([1]; 10^−8 M): 170.00 ± 13.87 % of the control | ERα (% of estradiol) ([1]; 10^−8 M): (79.90) % of estradiol | ERα (% of the control) mean ± S.D. ([1]; 10^−9 M): 121.95 ± 10.76 % of the control | ERα (% of estradiol) ([1]; 10^−9 M): (57.32) % of estradiol | concentration at which the transcriptional activity of ERα is agonized ([1]; luciferase reporter gene): 10^−8-10^−5 M | concentration of the highest ERα transcription activity ([1]; luciferase reporter gene): 10^−7 M | ERβ (% of the control) mean ± S.D. ([2]; 10^−5 M): 137.80 ± 15.93 % of the control | ERβ (% of estradiol) ([2]; 10^−5 M): (75.87) % of estradiol | ERβ (% of the control) mean ± S.D. ([2]; 10^−6 M): 148.13 ± 4.22 % of the control | ERβ (% of estradiol) ([2]; 10^−6 M): (81.56) % of estradiol | ERβ (% of the control) mean ± S.D. ([2]; 10^−7 M): 159.55 ± 28.00 % of the control | ERβ (% of estradiol) ([2]; 10^−7 M): (87.84) % of estradiol | ERβ (% of the control) mean ± S.D. ([2]; 10^−8 M): 131.16 ± 15.95 % of the control | ERβ (% of estradiol) ([2]; 10^−8 M): (77.72) % of estradiol | ERβ (% of the control) mean ± S.D. ([2]; 10^−9 M): 97.75 ± 17.66 % of the control | ERβ (% of estradiol) ([2]; 10^−9 M): (53.82) % of estradiol | concentration at which the transcriptional activity of ERβ is agonized ([2]; luciferase reporter gene): 10^−8-10^−5 M | concentration of the highest ERβ transcription activity ([2]; luciferase reporter gene): 10^−7 M | ERβ/ERα (both % of estradiol at 10^−8M) ([3]; sample 10^−5 M): 0.94 | ERβ/ERα (both % of estradiol at 10^−8M) ([3]; sample 10^−6 M): 0.90 | ERβ/ERα (both % of estradiol at 10^−8M) ([3]; sample 10^−7 M): 0.93 | ERβ/ERα (both % of estradiol at 10^−8M) ([3]; sample 10^−8 M): 0.97 | ERβ/ERα (both % of estradiol at 10^−8M) ([3]; sample 10^−9 M): 0.94 | estrogen activity / estrogen receptor activation (in words) ([3]; listed as (−) epicatechin-3-O-gallate): show relevance to estrogen receptor activation | estrogen activity / estrogen receptor activation (in words) ([3]; listed as (−)epicatechin-3-O-gallate): potent activity of estrogen | selectivity to receptor subtypes (ERα vs ERβ) ([3]; result in words): a higher selectivity to ERα than ERβ

Cc1cc(O)c2c(c1)C(=O)c1cccc(O)c1C2=O [Chrysophanol, chrysophanol]
ERα (% of the control) mean ± S.D. ([1]; 10^−6 M): 122.89 ± 8.94 % of the control | ERα (% of estradiol) ([1]; 10^−6 M): (51.51) % of estradiol | ERα (% of the control) mean ± S.D. ([1]; 10^−7 M): 97.77 ± 8.47 % of the control | ERα (% of estradiol) ([1]; 10^−7 M): (40.98) % of estradiol | ERα (% of the control) mean ± S.D. ([1]; 10^−8 M): 80.15 ± 13.88 % of the control | ERα (% of estradiol) ([1]; 10^−8 M): (33.59) % of estradiol | ERα (% of the control) mean ± S.D. ([1]; 10^−9 M): 84.53 ± 14.21 % of the control | ERα (% of estradiol) ([1]; 10^−9 M): (35.43) % of estradiol | ERβ (% of the control) mean ± S.D. ([2]; 10^−6 M): 120.43 ± 12.98 % of the control | ERβ (% of estradiol) ([2]; 10^−6 M): (61.26) % of estradiol | ERβ (% of the control) mean ± S.D. ([2]; 10^−7 M): 83.12 ± 4.78 % of the control | ERβ (% of estradiol) ([2]; 10^−7 M): (42.28) % of estradiol | ERβ (% of the control) mean ± S.D. ([2]; 10^−8 M): 76.85 ± 8.82 % of the control | ERβ (% of estradiol) ([2]; 10^−8 M): (39.09) % of estradiol | ERβ (% of the control) mean ± S.D. ([2]; 10^−9 M): 86.99 ± 23.16 % of the control | ERβ (% of estradiol) ([2]; 10^−9 M): (44.25) % of estradiol | ERβ/ERα (both % of estradiol at 10^−8M) ([3]; sample 10^−6 M): 1.19 | ERβ/ERα (both % of estradiol at 10^−8M) ([3]; sample 10^−7 M): 1.03 | ERβ/ERα (both % of estradiol at 10^−8M) ([3]; sample 10^−8 M): 1.16 | ERβ/ERα (both % of estradiol at 10^−8M) ([3]; sample 10^−9 M): 1.25
